Source: the Biogen ADME set (Fang et al. 2023)
In brackets after ≈: the same amount, converted by molar mass.

Settings: for aqueous solubility: pH 6.8

Row | SMILES | MDR1-MDCK efflux ratio | intrinsic clearance, human liver microsomes | intrinsic clearance, rat liver microsomes | aqueous solubility | fraction unbound, human plasma | fraction unbound, rat plasma
1 | Cc1cccc(OCCCNc2cc(Cn3c(C)nc4ccccc43)nc(N)n2)c1 | 22.7 | 535 mL/min/kg | 2050 mL/min/kg | 35.5 µg/mL (≈ 88.1 µM) | – | –
2 | COc1ccc(C(=O)Nc2ccc3oc(C)nc3c2)c(OC)c1 | 0.547 | 25.3 mL/min/kg | 191 mL/min/kg | 15.4 µg/mL (≈ 49.4 µM) | – | –
3 | Cc1cc(C(=O)N(C)C2CCC2)n2nccc2n1 | 0.719 | ≤ 4.74 mL/min/kg | ≤ 10.7 mL/min/kg | 90.9 µg/mL (≈ 372 µM) | – | –
4 | Cc1cc(OCCCS(C)(=O)=O)cc(C)c1-c1cccc(COc2ccc3c(c2)OC[C@@H]3CC(=O)O)c1 | 6.84 | 5.67 mL/min/kg | 28.3 mL/min/kg | – | – | –
5 | O=C(CNc1cc(N2CCCC2=O)ccc1F)N1CCCCCC1 | 2.68 | 23.8 mL/min/kg | 393 mL/min/kg | – | – | –
6 | CN(Cc1nncn1C)C1CCN(c2ccccc2F)CC1 | 2.06 | ≤ 4.74 mL/min/kg | 89.4 mL/min/kg | – | – | –
7 | Cc1cccc([C@H]2CN(C(=O)C3CCCC3)[C@@H]3CCN(CC4CC4)C[C@H]23)c1 | 1.86 | 555 mL/min/kg | 2330 mL/min/kg | – | – | –
8 | CCCN(CCC1=CCCCC1)C(=O)Cc1n[nH]c(=O)[nH]1 | 11.3 | ≤ 4.74 mL/min/kg | 1270 mL/min/kg | – | – | –
9 | N#Cc1ccc(-c2cccc(CN)c2)s1 | – | 356 mL/min/kg | 557 mL/min/kg | – | – | –
10 | Cc1cccc2sc(NC(=O)c3cccnc3)nc12 | 0.329 | – | – | 0.52 µg/mL (≈ 1.93 µM) | – | –
11 | N#Cc1ccc2nc([C@H]3CCN(C4CCC4)C3)[nH]c2c1 | 4.41 | 7.26 mL/min/kg | 68.4 mL/min/kg | 50.2 µg/mL (≈ 188 µM) | – | –
12 | CCCS(=O)(=O)NC1CCN(Cc2ccc(C)c(OC)c2)CC1 | 1.43 | 16.5 mL/min/kg | 798 mL/min/kg | – | – | –
13 | CC(C)CCNC(=O)CSc1nc2ccccc2[nH]1 | 3.98 | 114 mL/min/kg | 1110 mL/min/kg | – | – | –
14 | Cc1ccc2c(c1)c(Cn1ccnc1-c1cccc(C)n1)nn2C | 0.679 | 122 mL/min/kg | 1920 mL/min/kg | 32.9 µg/mL (≈ 103 µM) | – | –
15 | CN(C)c1ccnc(NCc2ccc(F)cc2)n1 | – | 54 mL/min/kg | 1790 mL/min/kg | – | – | –
16 | O=c1[nH]c2ccccc2n1C1CCN(Cc2nc(-c3cccs3)no2)CC1 | – | 11.4 mL/min/kg | 234 mL/min/kg | – | – | –
17 | Cc1c(C(=O)NCc2cnc(N(C)C)n2C)sc2ccccc12 | 5 | 17.9 mL/min/kg | 318 mL/min/kg | 51 µg/mL (≈ 155 µM) | – | –
18 | COc1ccc2nc(C)nc(NCc3ncc(C)o3)c2c1 | 1.39 | 23.5 mL/min/kg | 296 mL/min/kg | – | – | –
19 | Cc1cccc2c1Oc1nc(-c3ccccc3)[nH]c(=S)c1C2 | – | – | – | 0.33 µg/mL (≈ 1.08 µM) | – | –
20 | CC(C)c1ccc(-c2cc3c(=O)n(CCC(=O)NCCN(C)C)ccn3n2)cc1 | 86.7 | 182 mL/min/kg | 142 mL/min/kg | 55.7 µg/mL (≈ 141 µM) | – | –

Row | SMILES | MDR1-MDCK efflux ratio | intrinsic clearance, human liver microsomes | intrinsic clearance, rat liver microsomes | aqueous solubility | fraction unbound, human plasma | fraction unbound, rat plasma
21 | c1cncc(-c2nnc3n2[C@H]2CN(Cc4cccs4)C[C@H]2CC3)c1 | 2.69 | 7.21 mL/min/kg | 343 mL/min/kg | – | – | –
22 | COCCc1noc(CN2CC(c3ccccc3)(c3ccccc3)CCC2=O)n1 | 2.43 | 211 mL/min/kg | 2010 mL/min/kg | – | 0.147 | 0.179
23 | C[C@H]1CC[C@H](n2c3cnccc3c3cnc(Nc4ccc5c(n4)CCN(C(=O)CO)C5)nc32)CC1 | 4.93 | 133 mL/min/kg | 349 mL/min/kg | – | – | –
24 | O=C(Nc1nccs1)c1c2c(nc3ccccc13)CCC2 | 1.44 | 13.2 mL/min/kg | 477 mL/min/kg | 6.78 µg/mL (≈ 23 µM) | – | –
25 | O=C1c2cccc3cccc(c23)C(=O)N1CCN1CCOCC1 | 0.595 | 12.1 mL/min/kg | 424 mL/min/kg | 36.9 µg/mL (≈ 119 µM) | – | –
26 | COc1cncc(-c2ccnc3[nH]ccc23)c1 | 0.671 | 67.1 mL/min/kg | 105 mL/min/kg | 24 µg/mL (≈ 107 µM) | – | –
27 | O=C(O)C1CN(Cc2ccc(OCc3ccc(Cl)c(Cl)c3)cc2)C1 | 4.1 | ≤ 4.74 mL/min/kg | ≤ 10.7 mL/min/kg | – | – | –
28 | O=C(NCc1cccc2c1OCCCO2)c1cscn1 | – | 7.67 mL/min/kg | 82.9 mL/min/kg | – | – | –
29 | CC(C)Cc1nn(C)c(=O)c2c(SCCCO)n(Cc3cccc4ccccc34)cc12 | 1.82 | 273 mL/min/kg | 2040 mL/min/kg | – | – | –
30 | Cc1nccc(NC(=O)c2ccc(Cl)nc2Cl)n1 | 0.548 | 5.24 mL/min/kg | 15.2 mL/min/kg | – | – | –
31 | CCC1=C(C)CN(C(=O)NCCc2ccc(S(=O)(=O)NC(=O)N[C@H]3CC[C@H](C)CC3)cc2)C1=O | 68.6 | 19.2 mL/min/kg | 305 mL/min/kg | – | 0.00066 | 0.00023
32 | O=C(Nc1nc2c(s1)COc1ccccc1-2)c1cnc(Cl)c(Cl)c1 | 1.02 | 33.8 mL/min/kg | 279 mL/min/kg | 3.7 µg/mL (≈ 9.78 µM) | – | –
33 | O=C(NO)c1cnc(NC2(c3cccc(F)c3)CCCCC2)nc1 | – | 14.4 mL/min/kg | 306 mL/min/kg | – | – | –
34 | CN(C(=O)c1cc(N2CCNC2=O)ccc1F)C1CCNC1 (stereo unspecified) | 0.835 | ≤ 4.74 mL/min/kg | – | – | 0.769 | –
35 | Cn1cc(CCNC(=O)N2CCCc3c(F)cccc32)cn1 | 1.71 | 25.2 mL/min/kg | 230 mL/min/kg | 42.5 µg/mL (≈ 141 µM) | – | –
36 | CCc1cc2c(cc1N1CCC(N3CCOCC3)CC1)C(C)(C)c1[nH]c3cc(C#N)ccc3c1C2=O | 11.8 | 35.8 mL/min/kg | 17.8 mL/min/kg | 11.7 µg/mL (≈ 24.2 µM) | – | –
37 | NC(=O)Cn1cc(-c2ccc(F)cc2)cn1 | 0.87 | ≤ 4.74 mL/min/kg | ≤ 10.7 mL/min/kg | 28 µg/mL (≈ 128 µM) | – | –
38 | Cc1cc(Cn2cnc(C#N)c2C#N)c2ccccc2n1 | 2.84 | ≤ 4.74 mL/min/kg | 36.7 mL/min/kg | – | – | –
39 | Oc1cncc(/C=C/c2nc(-c3ccncc3)no2)c1 | – | 31.8 mL/min/kg | 239 mL/min/kg | – | – | –
40 | CN1C(=O)c2ccc(C(=O)N(CC3CCCCC3)C3CC3)cc2C1=O | – | 123 mL/min/kg | 2600 mL/min/kg | – | – | –

Row | SMILES | MDR1-MDCK efflux ratio | intrinsic clearance, human liver microsomes | intrinsic clearance, rat liver microsomes | aqueous solubility | fraction unbound, human plasma | fraction unbound, rat plasma
41 | Cc1ccc(CC(=O)Nc2nc(C)no2)cn1 | 2 | ≤ 4.74 mL/min/kg | ≤ 10.7 mL/min/kg | 42.8 µg/mL (≈ 184 µM) | – | –
42 | OCc1cnnn1-c1cncc(Cl)n1 | 0.648 | ≤ 4.74 mL/min/kg | ≤ 10.7 mL/min/kg | – | – | –
43 | O=C(Nn1cnc2ccccc21)c1c2c(nc3ccccc13)CCC2 | 43.2 | ≤ 4.74 mL/min/kg | ≤ 10.7 mL/min/kg | 56.7 µg/mL (≈ 173 µM) | – | –
44 | CC(C)(C)c1cc(NS(=O)(=O)c2cccc(F)c2)cc(C(C)(C)C)c1 | – | 10 mL/min/kg | 306 mL/min/kg | – | – | –
45 | CC(O)(C#Cc1ccc2c(c1)N(c1nc(N)ncc1Cl)CC2)c1nccs1 (stereo unspecified) | 5.75 | 72.5 mL/min/kg | 327 mL/min/kg | – | 0.00754 | 0.0188
46 | O=C(NCC1(c2ccccc2)CC1)c1cccnc1 | 0.757 | ≤ 4.74 mL/min/kg | 231 mL/min/kg | 41.2 µg/mL (≈ 163 µM) | – | –
47 | Cn1ccc(C(=O)NCCc2cc3nc(-c4ccncc4)ccn3n2)n1 | – | 8.83 mL/min/kg | 105 mL/min/kg | – | – | –
48 | CCOC(=O)c1cccnc1-c1cccc2ccnn12 | 0.687 | ≤ 4.74 mL/min/kg | 80.1 mL/min/kg | 45.8 µg/mL (≈ 171 µM) | – | –
49 | Cc1ncsc1CCN1C(=O)NC2(CCCC2)C1=O | – | ≤ 4.74 mL/min/kg | 172 mL/min/kg | – | – | –
50 | COc1ccccc1-c1nc(-c2ccc(NC(C)=O)cc2)c(C)s1 | – | – | – | 0.73 µg/mL (≈ 2.16 µM) | – | –
51 | Cc1cccnc1NC(=O)c1csc(-c2ccccc2)n1 | – | 54 mL/min/kg | 462 mL/min/kg | 43.2 µg/mL (≈ 146 µM) | – | –
52 | N#Cc1cc(F)ccc1Cn1ccnc1-c1ccccn1 | – | 20.5 mL/min/kg | 415 mL/min/kg | – | – | –
53 | O=C(O)c1ccc(Nc2ncc3c(n2)-c2ccc(Cl)cc2C(c2c(F)cccc2F)=NC3)cc1 | 3.32 | ≤ 4.74 mL/min/kg | 102 mL/min/kg | 47.1 µg/mL (≈ 98.8 µM) | – | –
54 | Cc1cc(OCC(=O)N(C)C2CCCCCCC2)no1 | 0.765 | 56.6 mL/min/kg | 2210 mL/min/kg | 43.9 µg/mL (≈ 156 µM) | – | –
55 | N#CC1(NC(=O)C2CCCCCC2)CC1 | – | ≤ 4.74 mL/min/kg | ≤ 10.7 mL/min/kg | 33.4 µg/mL (≈ 162 µM) | – | –
56 | Cc1ncc(-c2ccc(C)c(S(=O)(=O)NCc3cnn(C)c3C)c2)o1 | 36.5 | 177 mL/min/kg | 1370 mL/min/kg | – | – | –
57 | Cc1cc(Oc2ncccn2)ccc1NC(=O)c1c(C)oc(C)c1C | 0.8 | ≤ 4.74 mL/min/kg | 122 mL/min/kg | 55 µg/mL (≈ 163 µM) | – | –
58 | CN1CCN(Cc2noc(Cc3ccccc3)n2)c2ccccc21 | 0.641 | 341 mL/min/kg | 2000 mL/min/kg | 14.1 µg/mL (≈ 44 µM) | – | –
